For data set [1] the following is noted: in water, at 20° C.; cited from earlier work.
Another data set is described as follows: Solubility in water. It counts as physicochemical. To be noted: sodium salt, no temperature printed for this value. How it is done:
100 ml of a 3.7% strength by weight sodium hydrogen carbonate solution (44.1 mmol NaHCO3) are added to 15.0 g (44.1 mmol) of (4-diphenylphosphinophenyl)methylphosphinic acid and the mixture stirred at room temperature until CO2 formation has ended. The aqueous solution is completely evaporated and dried under reduced pressure. 15.6 g (97% of theory) of sodium (4-diphenylphosphinophenyl)methylphosphinate are obtained. Solubility in water: 590 g/l

Where a name gives a salt, the structure may show the parent alone.

Consider `O=S(=O)(O)c1cccc(P(c2ccccc2)c2ccccc2)c1` [Na[TPPMS], sodium salt of triphenylphosphinemonosulfonate], for which the “water solubility (literature comparison)” value in data set [1] was 80 mg/mL.

In the case of `CP(=O)(O)c1ccc(P(c2ccccc2)c2ccccc2)cc1` [Sodium (4-diphenylphosphinophenyl)methylphosphinate], the Solubility in water in the data set “Solubility in water” came to 590 mg/mL.

Take “disodium salt of triphenylphosphinemonophosphonate [Na2 TPPMP]”: the “water solubility (literature comparison)” value in data set [1] was 380 mg/mL.

Values taken from patent publication US5801263A, “Process for preparing tertiary phosphines containing phosphinate or phosphonate groups, and novel tertiary phosphines containing phosphinate groups” (Hoechst Aktiengesellschaft, priority 1996, dated 1998).
